Measurements published in US11118200B2, “Method for preparing amines from aldehydes and ketones by biocatalysis” (COMMISSARIAT A L'ENERGIE ATOMIQUE ET AUX ENERGIES …, priority 2017, dated 2021).
Marks after values point to notes of the source that are not given here. Each block holds one compound with its values, some of them ahead of it.

Columns and labels:
enzyme of SEQ ID NO:4 = test: Screening of carbonyl-containing compounds with ammonia as amine source (specific activity, absorbance at 340 nm); type: biochemical, Aminomonas paucivorans DSM 12260; set-up: key to Detection of the expected compound, SEQ ID NO: 4: d: detected activity; nd: not detected activity; conditions: for Detection of the expected compound, SEQ ID NO: 4: pH 9.5, 25° C.
Procedure: (§1) All the reactions were conducted at 25° C. in spectrophotometric cell (10 mm light path). To a mixture of ammonium formate buffer (2 M NH4HCO2/NH4OH, pH 9.5), NADH or NADPH (0.2 mM) and an appropriate amount of purified enzyme was added. Carbonyl-containing compound (5 or 10 mM) is then added to initiate the reaction (reaction final volume 100 μL). The initial slope measured at 340 nm determined the specific activity of the enzyme according to Beer-Lambert's law and the molar absorptivity of β-NADH (ϵ=6298 M^−1 cm^−1).

enzyme of SEQ ID NO:3 [1] = test: as above; type: biochemical, Microbacterium sp. MA1; conditions: for Specific activity, SEQ ID NO: 3: 10 mM of carbonyl-containing compound, ammonia as amine source
Procedure: (§2) All the reactions were conducted at 25° C. in spectrophotometric cell (10 mm light path). To a mixture of ammonium formate buffer (2 M NH4HCO2/NH4OH, pH 9.5), NADH or NADPH (0.2 mM) and an appropriate amount of purified enzyme was added.

enzyme of SEQ ID NO:1 [2] = test: as above; type: biochemical, Mycobacterium smegmatis; conditions: for Specific activity, SEQ ID NO: 1: 10 mM of carbonyl-containing compound, ammonia as amine source
Procedure: as §2

enzyme of SEQ ID NO:2 = test: as above; type: biochemical, Cystobacter fuscus DSM 2262; conditions: for Specific activity, SEQ ID NO: 2: 10 mM of carbonyl-containing compound, ammonia as amine source
Procedure: as §2

enzyme of SEQ ID NO:5 [3] = test: as above; type: biochemical, Mycobacterium vaccae ATCC 25954; conditions: mixture NADH/NADPH (0.1 mM each), 5 mM of carbonyl-containing compound
Procedure: as §1, with “To a mixture of ammonium formate buffer (2 M NH4HCO2/NH4OH, pH 9.5), NADH or NADPH (0.2 mM) and an appropriate amount of purified enzyme was added.” left out

enzyme of SEQ ID NO:3 [4] = test: Screening of carbonyl-containing compounds with methylamine as amine source; type: biochemical, Microbacterium sp. MA1; conditions: preliminary
Procedure: as §1, with “of TRIS.HCl” for “of ammonium formate”, “buffer (50 mM,” for “buffer (2 M NH4HCO2/NH4OH,”, “NADH and” for “NADH or”, “NADPH (0.1 mM each), methylamine (500” for “NADPH (0.2”, “(5” for “(5 or 10”

Cal-AmDH = conditions: as described in Pushpanath et al.; cited from earlier work
enzyme of SEQ ID NO:5 [5] = test: Screening of carbonyl-containing compounds with methylamine as amine source; type: biochemical, Mycobacterium vaccae ATCC 25954; conditions: preliminary
Procedure: as §1, with “of TRIS.HCl” for “of ammonium formate”, “buffer (50 mM,” for “buffer (2 M NH4HCO2/NH4OH,”, “NADH and” for “NADH or”, “NADPH (0.1 mM each), methylamine (500” for “NADPH (0.2”, “(5” for “(5 or 10”

Bbad-AmDH = conditions: as described in Pushpanath et al.; cited from earlier work
enzyme of SEQ ID NO:1 [6] = test: Screening of carbonyl-containing compounds with methylamine as amine source; type: biochemical, Mycobacterium smegmatis; conditions: preliminary
Procedure: as §1, with “of TRIS.HCl” for “of ammonium formate”, “buffer (50 mM,” for “buffer (2 M NH4HCO2/NH4OH,”, “NADH and” for “NADH or”, “NADPH (0.1 mM each), methylamine (500” for “NADPH (0.2”, “(5” for “(5 or 10”

PheDH-AmDH K77S/N276L = PheDH-AmDH K77S/N276L (Pseudobacillus badius, UniProt Q59224, K78S/N277L); conditions: prior-art engineered enzyme; cited from earlier work
Chain of PheDH-AmDH K77S/N276L (Q59224 whole entry K78S/N277L): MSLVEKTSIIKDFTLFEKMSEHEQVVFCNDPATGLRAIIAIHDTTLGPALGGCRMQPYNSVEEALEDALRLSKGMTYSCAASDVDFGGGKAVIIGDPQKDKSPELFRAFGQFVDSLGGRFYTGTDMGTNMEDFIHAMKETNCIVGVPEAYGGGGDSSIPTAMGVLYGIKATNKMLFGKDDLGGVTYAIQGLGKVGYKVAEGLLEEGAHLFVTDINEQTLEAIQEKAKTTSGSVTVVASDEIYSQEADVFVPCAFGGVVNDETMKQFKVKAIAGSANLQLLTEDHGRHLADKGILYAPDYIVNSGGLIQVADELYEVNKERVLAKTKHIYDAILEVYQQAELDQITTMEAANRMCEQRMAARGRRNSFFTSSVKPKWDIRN
enzyme of SEQ ID NO:6 = test: Screening of carbonyl-containing compounds with ammonia as amine source (specific activity, absorbance at 340 nm); type: biochemical, Mycobacterium sp. GA-2829; conditions: mixture NADH/NADPH (0.1 mM each), 10 mM of carbonyl-containing compound
Procedure: as §1, with “To a mixture of ammonium formate buffer (2 M NH4HCO2/NH4OH, pH 9.5), NADH or NADPH (0.2 mM) and an appropriate amount of purified enzyme was added.” left out

[7] = 0.2 mM NADPH (best of NADH/NADPH)
[8] = 0.2 mM NADH (best of NADH/NADPH)
[9] = 0.2 mM NADH (best of NADH/NADPH), listed as drawing 130
[10] = methylamine (500 mM) as amine source, NADH/NADPH (0.1 mM each), carbonyl-containing compound 5 mM

SMILES: CCCCC=O [drawing 122]
Specific activity, SEQ ID NO: 4 (enzyme of SEQ ID NO:4; 0.2 mM NADH (best of NADH/NADPH), 10 mM of carbonyl-containing compound, ammonia as amine source): 89.1^a mU.mg^-1
Detection of the expected compound, SEQ ID NO: 4 (enzyme of SEQ ID NO:4; ammonia as amine source): d

SMILES: O=Cc1ccccc1
Detection of the expected compound, SEQ ID NO: 4 (enzyme of SEQ ID NO:4; ammonia as amine source): d

SMILES: CCC(=O)CC
Specific activity, SEQ ID NO: 3 (enzyme of SEQ ID NO:3 [1]; [7]): 192.0^b mU.mg^-1
Specific activity, SEQ ID NO: 1 (enzyme of SEQ ID NO:1 [2]; [7]): 48.2^b mU.mg^-1
Specific activity, SEQ ID NO: 2 (enzyme of SEQ ID NO:2; [7]): 3.6^b mU.mg^-1

SMILES: CCCC(C)=O [drawing 170]
Specific activity, SEQ ID NO: 5 (enzyme of SEQ ID NO:5 [3]): 6.1 mU.mg^-1

SMILES: CCCC(C)=O [drawing 142]
Specific activity, SEQ ID NO: 3 (enzyme of SEQ ID NO:3 [1]; [7]): 51.2^b mU.mg^-1
Specific activity, SEQ ID NO: 1 (enzyme of SEQ ID NO:1 [2]; [7]): 9.0^b mU.mg^-1
Specific activity, SEQ ID NO: 2 (enzyme of SEQ ID NO:2; [7]): 6.4^b mU.mg^-1

SMILES: CC(=O)C(C)C
Specific activity, SEQ ID NO: 3 (enzyme of SEQ ID NO:3 [1]; [7]): 245.6^b mU.mg^-1
Specific activity, SEQ ID NO: 1 (enzyme of SEQ ID NO:1 [2]; [7]): 125.8^b mU.mg^-1
Specific activity, SEQ ID NO: 2 (enzyme of SEQ ID NO:2; [8]): 68.2^a mU.mg^-1

SMILES: CC(=O)CC(N)C(=O)O (centres unmarked) [2-amino-4-oxopentanoic acid]
activity of enzyme of SEQ ID NO:3 towards the substrate (in words) (enzyme of SEQ ID NO:3 [1]; reductive amination): inactive
activity of enzyme of SEQ ID NO:1 towards the substrate (in words) (enzyme of SEQ ID NO:1 [2]; reductive amination): inactive
activity of enzyme of SEQ ID NO:4 towards the substrate (in words) (enzyme of SEQ ID NO:4; reductive amination): inactive
activity of enzyme of SEQ ID NO:2 towards the substrate (in words) (enzyme of SEQ ID NO:2; reductive amination): inactive

SMILES: O=C1CCCCC1 [cyclohexanone]
Specific activity, SEQ ID NO: 3 (enzyme of SEQ ID NO:3 [1]; [8]): 614.5 mU.mg^-1
Specific activity, SEQ ID NO: 3 (enzyme of SEQ ID NO:3 [1]; [9]): 614.5^a mU.mg^-1
Specific activity, SEQ ID NO: 3 (enzyme of SEQ ID NO:3 [4]; [10]): 90.4 mU.mg-^1
activity of enzyme of SEQ ID NO:3 on the substrate with methylamine (in words) (enzyme of SEQ ID NO:3 [4]; methylamine as amine source): active
specific activity of Cal-AmDH (Cal-AmDH): 12.7 mU·mg^−1
Specific activity, SEQ ID NO: 1 (enzyme of SEQ ID NO:1 [2]; [8]): 196.2 mU.mg^-1
Specific activity, SEQ ID NO: 1 (enzyme of SEQ ID NO:1 [2]; [9]): 196.2^a mU.mg^-1
Specific activity, SEQ ID NO: 5 (enzyme of SEQ ID NO:5 [5]; [10]): 12.6 mU.mg-^1
activity of enzyme of SEQ ID NO:5 on the substrate with methylamine (in words) (enzyme of SEQ ID NO:5 [5]; methylamine as amine source): active
specific activity of Bbad-AmDH (Bbad-AmDH): 11.3 mU·mg^−1
Specific activity, SEQ ID NO: 2 (enzyme of SEQ ID NO:2; [8]): 135.9 mU.mg^-1
Specific activity, SEQ ID NO: 2 (enzyme of SEQ ID NO:2; [9]): 135.9^a mU.mg^-1
Specific activity, SEQ ID NO: 1 (enzyme of SEQ ID NO:1 [6]; [10]): 10.1 mU.mg-^1
activity of enzyme of SEQ ID NO:1 on the substrate with methylamine (in words) (enzyme of SEQ ID NO:1 [6]; methylamine as amine source): active
specific activity of PheDH-AmDH K77S/N276L (PheDH-AmDH K77S/N276L): 27 mU·mg^−1

SMILES: O=C1CCCCC1 [drawing 168]
Specific activity, SEQ ID NO: 5 (enzyme of SEQ ID NO:5 [3]): 75.6 mU.mg^-1
Specific activity, SEQ ID NO: 6 (enzyme of SEQ ID NO:6): 13.9 mU.mg^-1

SMILES: CC(=O)C1CCCCC1
Specific activity, SEQ ID NO: 3 (enzyme of SEQ ID NO:3 [1]; [7]): 64.0^b mU.mg^-1
Specific activity, SEQ ID NO: 1 (enzyme of SEQ ID NO:1 [2]; [7]): 2.1^b mU.mg^-1

More lines, now with the values ahead:

Specific activity, SEQ ID NO: 3 (enzyme of SEQ ID NO:3 [1]; [7]): 23.3^b mU.mg^-1
Specific activity, SEQ ID NO: 1 (enzyme of SEQ ID NO:1 [2]; [7]): 7.7^b mU.mg^-1
Specific activity, SEQ ID NO: 2 (enzyme of SEQ ID NO:2; [7]): 13.9^b mU.mg^-1
SMILES: CC1CCC(=O)C1 (centres unmarked)

Specific activity, SEQ ID NO: 3 (enzyme of SEQ ID NO:3 [1]; [7]): 61.6^b mU.mg^-1
Specific activity, SEQ ID NO: 1 (enzyme of SEQ ID NO:1 [2]; [7]): 9.7^b mU.mg^-1
SMILES: CC1CC(=O)CC(C)C1 (centres unmarked)

Specific activity, SEQ ID NO: 3 (enzyme of SEQ ID NO:3 [1]; [7]): 60.6^b mU.mg^-1
Specific activity, SEQ ID NO: 1 (enzyme of SEQ ID NO:1 [2]; [7]): 5.6^b mU.mg^-1
Specific activity, SEQ ID NO: 2 (enzyme of SEQ ID NO:2; [7]): 24.2^b mU.mg^-1
SMILES: O=C1CCCC1

Specific activity, SEQ ID NO: 3 (enzyme of SEQ ID NO:3 [1]; [7]): 37.1^b mU.mg^-1
Specific activity, SEQ ID NO: 1 (enzyme of SEQ ID NO:1 [2]; [7]): 7.4^b mU.mg^-1
Specific activity, SEQ ID NO: 2 (enzyme of SEQ ID NO:2; [8]): 2.5^a mU.mg^-1
SMILES: O=C1C=CCCC1
